Test results: ChEMBL document CHEMBL4411283, “The p53 stabilizing agent CP-31398 and multi-kinase inhibitors. Designing, synthesizing and screening of styrylquinazoline series” (Eur J Med Chem, 2019)

Columns and labels:
[1] = test system: HCT-116; experiment: cells; details: Homo sapiens, HCT-116, 72 h
Description: Antiproliferative activity against p53-/- human HCT116 cells after 72 hrs by CellTiter 96 aqueous one solution assay

[2] = target: T1, Tyrosine-protein kinase Fyn (Homo sapiens, UniProt P06241); experiment: Inhibition of Fyn A (unknown origin) at 0.5 uM preincubated for 10 mins followed by substrate addition and measured after 1 hr by ADP-Glo luminescence assay relative to control
Target sequence in this assay (P06241 2-537 limits assumed): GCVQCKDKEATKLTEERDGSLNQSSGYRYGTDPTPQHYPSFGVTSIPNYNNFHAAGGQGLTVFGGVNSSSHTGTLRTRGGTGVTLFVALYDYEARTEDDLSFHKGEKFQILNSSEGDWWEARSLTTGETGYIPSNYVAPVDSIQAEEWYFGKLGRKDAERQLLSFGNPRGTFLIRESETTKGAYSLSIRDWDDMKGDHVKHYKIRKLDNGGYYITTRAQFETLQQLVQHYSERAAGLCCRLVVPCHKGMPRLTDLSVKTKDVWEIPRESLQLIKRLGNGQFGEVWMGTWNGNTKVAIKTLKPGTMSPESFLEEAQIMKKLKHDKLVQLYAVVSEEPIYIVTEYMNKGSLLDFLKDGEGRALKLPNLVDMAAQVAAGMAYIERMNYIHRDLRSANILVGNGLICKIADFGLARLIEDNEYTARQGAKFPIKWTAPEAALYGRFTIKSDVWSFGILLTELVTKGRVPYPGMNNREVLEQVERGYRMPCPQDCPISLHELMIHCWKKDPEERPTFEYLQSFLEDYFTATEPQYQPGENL

[3] = test system: HCT-116; experiment: cells; details: Homo sapiens, HCT-116, 72 h; remark: listed apart in the source
Description: Antiproliferative activity against p53+/+ human HCT116 cells after 72 hrs by CellTiter 96 aqueous one solution assay

[4] = test system: A549; experiment: cells; details: Homo sapiens, A549, 72 h
Description: Antiproliferative activity against human A549 cells after 72 hrs by CellTiter 96 aqueous one solution assay

[5] = test system: MCF7; experiment: cells; details: Homo sapiens, MCF7, 72 h
Description: Antiproliferative activity against human MCF7 cells after 72 hrs by CellTiter 96 aqueous one solution assay

[6] = test system: NHDF; experiment: cells; details: Homo sapiens, 72 h
Description: Antiproliferative activity against human NHDF cells after 72 hrs by CellTiter 96 aqueous one solution assay

[7] = target: T1, Tyrosine-protein kinase Fyn; experiment: Inhibition of Fyn A (unknown origin) preincubated for 10 mins followed by substrate addition and measured after 1 hr by ADP-Glo luminescence assay
Target sequence in this assay (P06241 whole entry): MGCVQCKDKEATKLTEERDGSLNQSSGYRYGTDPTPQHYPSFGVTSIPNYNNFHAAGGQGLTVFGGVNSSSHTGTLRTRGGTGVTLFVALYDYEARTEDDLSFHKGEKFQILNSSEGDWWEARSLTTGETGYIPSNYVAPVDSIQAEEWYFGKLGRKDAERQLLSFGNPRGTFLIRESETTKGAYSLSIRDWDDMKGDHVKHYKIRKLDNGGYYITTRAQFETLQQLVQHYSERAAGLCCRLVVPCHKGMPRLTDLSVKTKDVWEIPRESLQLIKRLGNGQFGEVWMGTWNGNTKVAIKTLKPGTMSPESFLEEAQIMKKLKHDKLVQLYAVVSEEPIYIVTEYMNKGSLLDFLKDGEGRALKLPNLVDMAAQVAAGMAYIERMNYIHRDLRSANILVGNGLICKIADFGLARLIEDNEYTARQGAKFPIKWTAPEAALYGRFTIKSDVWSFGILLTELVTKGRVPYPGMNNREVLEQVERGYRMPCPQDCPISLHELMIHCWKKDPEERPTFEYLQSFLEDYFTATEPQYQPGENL

[8] = target: T2, Tyrosine-protein kinase BTK (Homo sapiens, UniProt Q06187); experiment: Inhibition of BTK (unknown origin) preincubated for 10 mins followed by substrate addition and measured after 1 hr by ADP-Glo luminescence assay
T2 sequence (Q06187 whole entry, the tested form may be a part): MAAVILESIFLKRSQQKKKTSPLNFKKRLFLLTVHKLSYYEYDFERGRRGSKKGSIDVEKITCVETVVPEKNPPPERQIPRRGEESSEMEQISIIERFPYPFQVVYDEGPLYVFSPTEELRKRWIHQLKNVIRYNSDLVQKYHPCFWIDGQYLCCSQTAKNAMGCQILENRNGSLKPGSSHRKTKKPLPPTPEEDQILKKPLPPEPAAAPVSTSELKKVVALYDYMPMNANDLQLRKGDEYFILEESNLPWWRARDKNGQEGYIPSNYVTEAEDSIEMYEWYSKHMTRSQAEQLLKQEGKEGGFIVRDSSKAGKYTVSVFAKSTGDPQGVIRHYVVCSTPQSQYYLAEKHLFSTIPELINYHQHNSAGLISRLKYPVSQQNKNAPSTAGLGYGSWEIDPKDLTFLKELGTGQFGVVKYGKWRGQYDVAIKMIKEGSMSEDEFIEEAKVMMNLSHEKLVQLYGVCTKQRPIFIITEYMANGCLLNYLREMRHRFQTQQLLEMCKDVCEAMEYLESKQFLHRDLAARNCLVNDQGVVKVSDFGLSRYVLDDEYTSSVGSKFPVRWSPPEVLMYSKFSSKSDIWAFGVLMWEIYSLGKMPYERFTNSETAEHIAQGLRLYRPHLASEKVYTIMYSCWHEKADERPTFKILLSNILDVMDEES

[9] = target: T3, Receptor tyrosine-protein kinase erbB-4 (Homo sapiens, UniProt Q15303); experiment: Inhibition of human wild type ERBB4 (L690 to K994 residues) expressed in bacterial expression system at 5 uM relative to control
T3 sequence (Q15303 whole entry, the tested form may be a part): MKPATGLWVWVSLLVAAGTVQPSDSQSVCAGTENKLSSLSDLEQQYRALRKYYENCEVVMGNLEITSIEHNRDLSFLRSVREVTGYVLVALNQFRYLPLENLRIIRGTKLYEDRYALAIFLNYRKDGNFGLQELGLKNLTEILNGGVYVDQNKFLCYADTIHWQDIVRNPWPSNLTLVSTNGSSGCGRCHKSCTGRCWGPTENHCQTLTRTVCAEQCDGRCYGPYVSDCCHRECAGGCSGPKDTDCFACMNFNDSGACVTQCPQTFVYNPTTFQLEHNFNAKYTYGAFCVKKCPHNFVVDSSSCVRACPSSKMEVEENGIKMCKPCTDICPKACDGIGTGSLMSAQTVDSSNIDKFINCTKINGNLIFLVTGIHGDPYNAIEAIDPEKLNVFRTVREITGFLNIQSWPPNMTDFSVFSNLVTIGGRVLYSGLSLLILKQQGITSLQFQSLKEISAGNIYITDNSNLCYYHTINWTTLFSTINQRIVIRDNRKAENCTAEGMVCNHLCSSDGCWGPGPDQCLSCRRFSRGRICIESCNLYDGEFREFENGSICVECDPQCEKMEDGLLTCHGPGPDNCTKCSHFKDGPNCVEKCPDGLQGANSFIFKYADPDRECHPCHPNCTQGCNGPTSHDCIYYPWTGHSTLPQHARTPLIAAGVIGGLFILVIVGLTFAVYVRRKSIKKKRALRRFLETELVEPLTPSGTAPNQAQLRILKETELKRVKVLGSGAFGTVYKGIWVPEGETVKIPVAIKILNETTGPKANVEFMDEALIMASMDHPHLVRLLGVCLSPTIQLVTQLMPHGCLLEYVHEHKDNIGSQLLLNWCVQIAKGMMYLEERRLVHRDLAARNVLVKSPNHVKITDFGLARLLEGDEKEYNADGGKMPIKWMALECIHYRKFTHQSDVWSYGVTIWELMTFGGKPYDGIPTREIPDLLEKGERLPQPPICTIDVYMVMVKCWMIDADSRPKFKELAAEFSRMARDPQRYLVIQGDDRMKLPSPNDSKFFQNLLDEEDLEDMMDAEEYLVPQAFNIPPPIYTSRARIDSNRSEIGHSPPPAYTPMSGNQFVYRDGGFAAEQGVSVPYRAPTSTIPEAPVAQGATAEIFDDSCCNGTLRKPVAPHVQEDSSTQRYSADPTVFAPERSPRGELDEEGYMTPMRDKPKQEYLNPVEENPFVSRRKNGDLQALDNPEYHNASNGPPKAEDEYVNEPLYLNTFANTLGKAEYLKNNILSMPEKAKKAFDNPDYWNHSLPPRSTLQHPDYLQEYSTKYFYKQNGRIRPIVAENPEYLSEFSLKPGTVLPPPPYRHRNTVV

[10] = target: Nociceptin receptor (Homo sapiens, UniProt P41146); experiment: Displacement of [3H]-nociceptin from human nociceptin receptor expressed in cell membranes after 60 mins by liquid scintillation counting analysis
Nociceptin receptor, sequence (P41146 whole entry): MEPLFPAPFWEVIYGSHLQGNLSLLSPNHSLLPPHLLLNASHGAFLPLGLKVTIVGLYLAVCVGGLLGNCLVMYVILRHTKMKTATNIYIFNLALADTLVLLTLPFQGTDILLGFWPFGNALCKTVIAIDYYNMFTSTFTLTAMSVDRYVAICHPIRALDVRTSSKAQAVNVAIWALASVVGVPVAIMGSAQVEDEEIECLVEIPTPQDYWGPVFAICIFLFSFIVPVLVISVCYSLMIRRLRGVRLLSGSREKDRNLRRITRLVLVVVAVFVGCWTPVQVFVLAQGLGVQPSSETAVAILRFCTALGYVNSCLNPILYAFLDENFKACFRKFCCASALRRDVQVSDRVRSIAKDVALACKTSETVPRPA

[11] = target: Calcium/calmodulin-dependent protein kinase type 1G (Homo sapiens, UniProt Q96NX5); experiment: Inhibition of human CAMK1G using KKALRRQETVDAL as substrate by [gamma-33P]-ATP assay
[12] = target: T1, Tyrosine-protein kinase Fyn; experiment: Inhibition of human FYN at 20 uM using poly[Glu:Tyr] (4:1) as substrate by [gamma-33P]-ATP assay relative to control
Target sequence in this assay (P06241 2-537 limits assumed): as the sequence (P06241 2-537 limits assumed) above

[13] = target: T4, Tyrosine-protein kinase Lyn (Homo sapiens, UniProt P07948); experiment: Inhibition of human LYN at 20 uM using poly[Glu:Tyr] (4:1) as substrate by [gamma-33P]-ATP assay relative to control
[14] = target: Tyrosine-protein kinase CSK (Homo sapiens, UniProt P41240); experiment: Inhibition of human CSK using poly[Glu:Tyr] (4:1) as substrate by [gamma-33P]-ATP assay
Tyrosine-protein kinase CSK, sequence (P41240 whole entry): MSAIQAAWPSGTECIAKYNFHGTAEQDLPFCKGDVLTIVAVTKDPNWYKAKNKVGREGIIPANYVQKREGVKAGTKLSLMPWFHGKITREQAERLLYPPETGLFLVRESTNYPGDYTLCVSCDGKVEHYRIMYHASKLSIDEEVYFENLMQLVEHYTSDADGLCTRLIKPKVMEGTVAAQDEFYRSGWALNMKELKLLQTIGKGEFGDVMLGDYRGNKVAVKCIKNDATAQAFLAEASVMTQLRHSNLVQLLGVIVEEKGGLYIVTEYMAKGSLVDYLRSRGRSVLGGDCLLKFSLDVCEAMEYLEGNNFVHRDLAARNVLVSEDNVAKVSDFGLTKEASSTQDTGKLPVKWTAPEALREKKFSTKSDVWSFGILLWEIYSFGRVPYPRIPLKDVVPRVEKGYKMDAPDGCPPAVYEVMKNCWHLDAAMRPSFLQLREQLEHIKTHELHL

[15] = target: T4, Tyrosine-protein kinase Lyn; experiment: Inhibition of human LYN-B using poly[Glu:Tyr] (4:1) as substrate by [gamma-33P]-ATP assay
[16] = target: T3, Receptor tyrosine-protein kinase erbB-4; experiment: Inhibition of human ERBB4 using poly[Glu:Tyr] (4:1) as substrate by [gamma-33P]-ATP assay
[17] = target: Tyrosine-protein kinase ABL1 (Homo sapiens) (UniProt P00519); experiment: Inhibition of human ABL1 at 20 uM using EAIYAAPFAKKK as substrate by [gamma-33P]-ATP assay relative to control
Tyrosine-protein kinase ABL1 (Homo sapiens), sequence (P00519 whole entry): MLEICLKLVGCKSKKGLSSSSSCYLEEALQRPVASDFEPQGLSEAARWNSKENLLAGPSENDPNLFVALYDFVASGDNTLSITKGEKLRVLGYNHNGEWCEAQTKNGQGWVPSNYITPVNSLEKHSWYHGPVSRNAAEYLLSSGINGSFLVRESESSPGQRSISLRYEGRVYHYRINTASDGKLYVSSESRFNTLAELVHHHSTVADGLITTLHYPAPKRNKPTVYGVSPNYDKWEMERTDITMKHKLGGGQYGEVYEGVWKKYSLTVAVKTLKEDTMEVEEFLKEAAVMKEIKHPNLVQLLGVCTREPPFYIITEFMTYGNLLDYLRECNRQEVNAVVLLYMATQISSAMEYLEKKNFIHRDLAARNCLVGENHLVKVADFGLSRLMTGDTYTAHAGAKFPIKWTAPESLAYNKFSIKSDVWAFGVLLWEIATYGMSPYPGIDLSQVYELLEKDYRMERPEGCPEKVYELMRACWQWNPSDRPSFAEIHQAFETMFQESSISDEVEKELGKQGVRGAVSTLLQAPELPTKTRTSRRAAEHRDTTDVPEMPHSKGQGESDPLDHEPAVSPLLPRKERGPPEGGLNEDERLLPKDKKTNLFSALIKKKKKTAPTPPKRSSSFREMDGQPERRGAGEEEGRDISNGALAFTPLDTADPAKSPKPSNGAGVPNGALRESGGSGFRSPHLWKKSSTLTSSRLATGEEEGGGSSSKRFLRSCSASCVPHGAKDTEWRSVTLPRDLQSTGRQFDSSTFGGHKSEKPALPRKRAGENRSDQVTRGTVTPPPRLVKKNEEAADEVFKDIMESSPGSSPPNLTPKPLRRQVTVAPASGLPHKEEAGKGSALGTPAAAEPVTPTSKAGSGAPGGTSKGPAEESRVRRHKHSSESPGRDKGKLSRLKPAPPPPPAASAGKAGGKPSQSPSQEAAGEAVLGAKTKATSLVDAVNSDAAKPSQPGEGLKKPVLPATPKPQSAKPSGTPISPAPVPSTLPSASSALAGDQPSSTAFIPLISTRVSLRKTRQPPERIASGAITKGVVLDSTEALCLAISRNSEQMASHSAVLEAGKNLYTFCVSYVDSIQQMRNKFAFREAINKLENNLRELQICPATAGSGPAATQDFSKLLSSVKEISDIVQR

[18] = target: Tyrosine-protein kinase Lck (Homo sapiens) (UniProt P06239); experiment: Inhibition of human LCK at 20 uM using poly[Glu:Tyr] (4:1) as substrate by [gamma-33P]-ATP assay relative to control
[19] = target: T2, Tyrosine-protein kinase BTK; experiment: Inhibition of human BTK using KVEKIGEGTYGVVYK as substrate by [gamma-33P]-ATP assay
[20] = target: Tyrosine-protein kinase ABL1 (Homo sapiens) (UniProt P00519); details: at 0.5 µM
Description: Inhibition of ABL1 (unknown origin) at 0.5 uM preincubated for 10 mins followed by substrate addition and measured after 1 hr by ADP-Glo luminescence assay relative to control

Structure (SMILES)	IC50 [1] [µM]	inhibition [2] [%]	IC50 [3] [µM]	IC50 [4] [µM]	IC50 [5] [µM]	IC50 [6] [µM]	further results
COc1cccc(/C=C/c2nc3ccccc3c(=O)[nH]2)c1	> 25	0	> 25	–	–	–	–
Oc1cccc(Nc2nc(/C=C/c3cccc(Cl)c3)nc3ccccc23)c1	> 25	0	> 25	–	–	–	–
Cc1ccc(NC(=O)c2ccc(CN3CCN(C)CC3)cc2)cc1Nc1nccc(-c2cccnc2)n1 [IMATINIB]	–	0	–	> 25	> 25	> 25	–
O=c1[nH]c(/C=C/c2cc3c(cc2Br)OCO3)nc2ccccc12	> 25	0	> 25	> 25	> 25	–	–
COc1ccccc1/C=C/c1nc(Nc2ccc3c(c2)OCO3)c2ccccc2n1	13.7	90	15.9	9.88	4.86	7.72	IC50 [7]: 0.191 µM; IC50 [8]: 0.237 µM
CCN(CC)CCCNc1nc(/C=C/c2ccc(OC)cc2)nc2ccc(Br)cc12	–	–	–	–	–	–	inhibition [9]: 0%
COc1ccccc1/C=C/c1nc(Nc2cccc(O)c2)c2ccccc2n1	16.4	0	21.7	16.6	11.2	17.5	–
COc1ccc(/C=C/c2nc3ccccc3c(=O)[nH]2)cc1	> 25	2	> 25	> 25	> 25	–	–
COc1ccccc1/C=C/c1nc2ccccc2c(=O)[nH]1	1.46	0	2.47	> 25	4.45	> 25	IC50 [8]: 0.456 µM
Cc1ccc2nc(/C=C/c3ccccn3)nc(N[C@H]3CC[C@@H](N)C[C@H]3C)c2c1	–	–	–	–	–	–	Ki [10]: 0.002 µM
CCN(CC)CCCC(C)Nc1nc(/C=C/c2cc(OC)c(OC)cc2Cl)nc2cc(Cl)ccc12 (centres undefined)	–	–	–	–	–	–	IC50 [11]: 4.81 µM; inhibition [12]: 70%; inhibition [13]: 50%; IC50 [14]: 6.85 µM; IC50 [15]: > 100 µM; IC50 [16]: 7.74 µM; inhibition [17]: 0%; inhibition [18]: 80%; IC50 [19]: 5.15 µM
COc1ccccc1/C=C/c1nc(NCc2ccc3c(c2)OCO3)c2ccccc2n1	13.3	1	10.8	11.6	10.8	14.4	–
CCOc1ccc(/C=C/c2nc3ccccc3c(=O)[nH]2)cc1	> 25	0	> 25	–	–	–	–
COc1ccc(/C=C/c2nc(NCCCN(C)C)c3ccccc3n2)cc1	–	31	–	> 25	27	–	–
CCOc1ccccc1/C=C/c1nc2ccccc2c(=O)[nH]1	6.43	0	23.3	21.8	6.26	> 25	–
CC(=O)Oc1ccc(/C=C/c2nc3ccccc3c(=O)[nH]2)c(OC(C)=O)c1	23	19	> 25	> 25	> 25	> 25	–
CC(=O)Oc1ccccc1/C=C/c1nc(Nc2ccccc2I)c2ccccc2n1	> 25	24	> 25	16.4	15.6	23.2	–
O=[N+]([O-])c1cccc(/C=C/c2nc(Nc3cccc(O)c3)c3ccccc3n2)c1	10.8	0	10.9	15.4	10.1	11.2	IC50 [8]: 0.88 µM

Structure (SMILES)	IC50 [1] [µM]	inhibition [2] [%]	IC50 [3] [µM]	IC50 [4] [µM]	IC50 [5] [µM]	IC50 [6] [µM]	further results
CC(=O)Oc1cccc(/C=C/c2nc3ccccc3c(=O)[nH]2)c1	9.29	0	15.3	> 25	6.37	> 25	–
COc1ccc(/C=C/c2nc(Nc3cccc(O)c3)c3ccccc3n2)cc1	22.9	0	22.9	20.8	14.7	> 25	–
CC(=O)Oc1ccccc1/C=C/c1nc2ccccc2c(=O)[nH]1	17.2	0	> 25	> 25	> 25	> 25	–
Oc1ccc(Nc2nc(/C=C/c3cccc(Cl)c3)nc3ccccc23)cc1	22.7	0	21.9	14.8	9.19	14.2	–
O=c1[nH]c(/C=C/c2cccc([N+](=O)[O-])c2)nc2ccccc12	> 25	0	> 25	–	–	–	–
COc1ccc(Cl)c(Nc2ncnc3cc(OCC4CCN(C)CC4)c(OC)cc23)c1 [AZM-475271]	> 25	76	> 25	> 25	> 25	> 25	inhibition [20]: 8%
COc1ccc(OC)c(Nc2nc(/C=C/c3ccccc3OC(C)=O)nc3ccccc23)c1	> 25	63	> 25	> 25	7.84	> 25	–
Oc1cccc(Nc2nc(/C=C/c3cc4c(cc3Br)OCO4)nc3ccccc23)c1	5.03	0	4.38	7.41	4.38	4.59	IC50 [8]: 0.287 µM
O=c1[nH]c(/C=C/c2c(Br)ccc3c2OCO3)nc2ccccc12	> 25	61	> 25	13.8	12.8	14.8	–
COc1ccccc1/C=C/c1nc(Nc2ccc(O)cc2)c2ccccc2n1	17.9	0	> 25	13	8.29	13.8	–
O=c1[nH]c(/C=C/c2ccc([N+](=O)[O-])cc2)nc2ccccc12	> 25	29	> 25	–	–	–	–
CCCCOc1ccc(/C=C/c2nc3ccccc3c(=O)[nH]2)cc1	> 25	0	> 25	> 25	> 25	–	–
O=c1[nH]c(/C=C/c2cccc3c2OCO3)nc2ccccc12	> 25	40	> 25	–	–	–	–
CNC(=O)c1ccccc1Sc1ccc2c(/C=C/c3ccccn3)n[nH]c2c1	–	44	–	–	–	–	–
O=c1[nH]c(/C=C/c2ccc3c(c2)OCO3)nc2ccccc12	> 25	4	> 25	–	–	–	–
COc1ccccc1/C=C/c1nc(Nc2ccccc2Cl)c2ccccc2n1	16.1	0	> 25	> 25	18.9	> 25	–
Cc1nc(Nc2ncc(C(=O)Nc3c(C)cccc3Cl)s2)cc(N2CCN(CCO)CC2)n1 [DASATINIB]	–	92	3.58	23.7	1.11	0.71	–
